Results: patent publication US20140213575A1, “6H-Thieno[3,2-f][1,2,4]triazolo[4,3-a][1,4]diazepines” (BAYER INTELLECTUAL PROPERTY GMBH, priority 2011, published 2014)

Legend:
[1] = test system: LAPC-4 cells; experiment: Cellular proliferation assay (alamarBlue) LAPC-4; assay type: cell-based; details: Homo sapiens, LAPC4, 168 hours, read-out: Prostate LAPC-4 IC50
Method: (§1) In accordance with the invention, the ability of the substances to inhibit the proliferation of various cell lines was determined. Cell viability was determined by means of the alamarBlue® reagent (Invitrogen). […] After incubation overnight at 37° C., the fluorescence values were determined (CI values). […] Then the fluorescence values were determined (CO values).
(§2) The substances were investigated in the cell lines in Table 1, which for example represent the stated indications: […]

[2] = test system: LNCaP cells; experiment: Cellular proliferation assay (alamarBlue) LNCaP; assay type: cell-based; details: Homo sapiens, 168 hours, read-out: Prostate LNCaP IC50
Method: as §1, §2

[3] = target: T1, BRD4(1) (Homo sapiens, UniProt O60885); experiment: Binding assay BRD4/acetylated peptide H4 (TR-FRET/HTRF protein-protein interaction assay); details: inhibition of interaction BRD4(1) / acetylated histone H4 peptide, TR-FRET
T1 construct: BRD4(1) (amino acids 44-168); made in house; host or cells: E. coli
Description: Binding Assay BRD4/Acetylated Peptide H4 (“PRQ”)
To assess the BRD4 binding strength of the substances described in this application, their capacity for dose-dependent inhibition of the interaction between BRD4 and acetylated histone H4 was quantified.
For this purpose, a time-resolved fluorescence resonance energy transfer (TR-FRET) assay was used, which measures the binding between N-terminally His6-tagged BRD4(1) (amino acids 44-168) and a synthetic acetylated histone H4 (Ac-H4) peptide with the sequence GRGK(Ac)GGK(Ac)GLGK(Ac)GGAK(Ac)RHGSGSK-biotin. The recombinant BRD4 protein (produced in-house) was expressed in E. coli and was purified by (Ni-NTA) affinity chromatography and (Sephadex G-75) size-exclusion chromatography. The Ac-H4 peptide can be purchased for example from Biosyntan (Berlin, Germany).
In the assay, typically 11 different concentrations of each substance (0.1 nM, 0.33 nM, 1.1 nM, 3.8 nM, 13 nM, 44 nM, 0.15 μM, 0.51 μM, 1.7 μM, 5.9 μM and 20 μM) were measured as duplicates on the same microtitre plate. For this, 100-fold concentrated solutions in DMSO were prepared by serial dilutions (1:3.4) of a 2 mM stock solution in a clear, 384-well microtitre plate (Greiner Bio-One, Frickenhausen, Germany). From this, 50 nl was transferred to a black assay plate (Greiner Bio-One, Frickenhausen, Germany). The assay was started by supplying 2 μl of a 2.5-fold concentrated BRD4 solution (usually 10 to 50 nM final concentration in the 5 μl of the reaction volume) in aqueous assay buffer [50 mM HEPES pH 7.5, 50 mM sodium chloride (NaCl), 0.25 mM CHAPS and 0.05% serum albumin (BSA)] to the substances in the assay plate. This was followed by a 10-minute incubation step at 22° C. for the pre-equilibration of putative complexes between BRD4 and the substances.
The mixture was then incubated in the dark for one hour at 22° C. and then overnight at 4° C. The formation of BRD4/Ac-H4 complexes was determined by measuring the resonance energy transfer from the streptavidin-Eu-cryptate to the anti-6His-XL665 antibody that is present in the reaction. For this, the fluorescence emissions at 620 nm and 665 nm were measured after excitation at 330-350 nm in a TR-FRET measuring instrument, e.g. a Rubystar or Pherastar (both from BMG Lab Technologies, Offenburg, Germany) or a Viewlux (Perkin-Elmer). The ratio of the emissions at 665 nm and at […] was taken as an indicator of the amount of BRD4/Ac-H4 complexes formed.
The data obtained (ratio) were normalized, wherein 0% inhibition corresponded to the mean value from the measured values of a set of controls (usually 32 data points), in which all reagents were contained. 50 nl DMSO (100%) was used instead of test substances. Inhibition of 100% corresponded to the mean value from the measured values of a set of controls (usually 32 data points), in which all reagents except BRD4 were contained. The IC50 value was determined by regression analysis based on a 4-parameter equation (minimum, maximum, IC50, Hill; Y=Max+(Min−Max)/(1+(X/IC50)^Hill)) using Bayer's own analysis software.

[4] = test system: MDA-MB-231 cells; experiment: Cellular proliferation assay (alamarBlue) MDA-MB-231; assay type: cell-based; details: Homo sapiens, 96 hours, read-out: Breast MDA-MB-231 IC50
Method: as §1, §2

[5] = test system: VCaP cells; experiment: Cellular proliferation assay (alamarBlue) VCaP; assay type: cell-based; details: Homo sapiens, 168 hours, read-out: Prostate VCaP IC50
Method: as §1, §2

[6] = test system: MOLM-13 cells; experiment: Cellular proliferation assay (alamarBlue) MOLM-13; assay type: cell-based; details: Homo sapiens, 96 hours, read-out: Leukaemia MOLM-13 IC50
Method: as §1, §2

[7] = test system: HeLa-MaTu cells; experiment: Cellular proliferation assay (alamarBlue) HeLa-MaTu; assay type: cell-based; details: 96 hours, read-out: Cervix HeLa-MaTu IC50
Method: as §1, §2

[8] = test system: MOLP-8 cells; experiment: Cellular proliferation assay (alamarBlue) MOLP-8; assay type: cell-based; details: Homo sapiens, 120 hours, read-out: Multiple myeloma MOLP-8 IC50
Method: as §1, §2

[9] = test system: B16F10 cells; experiment: Cellular proliferation assay (alamarBlue) B16F10; assay type: cell-based; details: Mus musculus, B16-F10, 96 hours, read-out: Melanoma B16F10 IC50
Method: as §1, §2

[10] = test system: MCF-7 cells; experiment: Cellular proliferation assay (alamarBlue) MCF-7; assay type: cell-based; details: Homo sapiens, MCF7, 96 hours, read-out: Breast MCF-7 IC50
Method: as §1, §2

| SMILES | IC50 [1] [nM] | IC50 [2] [nM] | IC50 [3] [nM] | IC50 [4] [nM] | IC50 [5] [nM] | IC50 [6] [nM] | IC50 [7] [nM] | IC50 [8] [nM] | IC50 [9] [nM] | IC50 [10] [nM] |
| --- | --- | --- | --- | --- | --- | --- | --- | --- | --- | --- |
| Cc1sc2c(c1C)C(c1ccc(Cl)cc1)=N[C@@H](CC(=O)NC1C[C@H]3CCC[C@@H](C1)N3C(=O)OC(C)(C)C)c1nnc(C)n1-2 (stereo partly drawn) [Example 3, (1R,5S)-tert-Butyl-3-({2-[(S)-4-(4-chlorophenyl)-2,3,9-trimethyl-6H-thieno[3,2-f][1,2,4]triazolo[4,3-a][1,4]diazepin-6-yl]acetyl}amino)-9-azabicyclo[3.3.1]nonane-9-carboxylate] | 41 | 17 | 240 | 129 | 65 | 83 | 40 | 170 | 29 | 20 |
| Cc1sc2c(c1C)C(c1ccc(Cl)cc1)=N[C@@H](CC(=O)NC1C[C@H]3CCC[C@@H](C1)N3)c1nnc(C)n1-2 (stereo partly drawn) [Example 4, N-[(1R,5S)-9-Azabicyclo[3.3.1]non-3-yl]-2-[(S)-4-(4-chlorophenyl)-2,3,9-trimethyl-6H-thieno[3,2-f][1,2,4]triazolo[4,3-a][1,4]diazepin-6-yl]acetamide] | 228 | 353 | 15 | 604 | 71 | 57 | 753 | 240 | 1050 | 300 |
| Cc1sc2c(c1C)C(c1ccc(Cl)cc1)=N[C@@H](CC(=O)N1CC3CCC(C1)O3)c1nnc(C)n1-2 [Example 5, 2-[(S)-4-(4-Chlorophenyl)-2,3,9-trimethyl-6H-thieno[3,2-f][1,2,4]triazolo[4,3-a][1,4]diazepin-6-yl]-1-(8-oxa-3-azabicyclo[3.2.1]oct-3-yl)ethan-1-one] | 65 | 40 | 78 | 138 | 67 | 127 | 331 | 120 | 91 | 93 |
| Cc1sc2c(c1C)C(c1ccc(Cl)cc1)=N[C@@H](CC(=O)N1CCC3(COC3)C1)c1nnc(C)n1-2 [Example 6, 2-[(S)-4-(4-Chlorophenyl)-2,3,9-trimethyl-6H-thieno[3,2-f][1,2,4]triazolo[4,3-a][1,4]diazepin-6-yl]-1-(2-oxa-6-azaspiro[3.4]oct-6-yl)ethan-1-one] | 72 | 36 | 29 | 122 | 65 | 131 | 251 | 110 | 87 | 98 |
| Cc1sc2c(c1C)C(c1ccc(Cl)cc1)=N[C@@H](CC(=O)N1CCC3(CC1)COC3)c1nnc(C)n1-2 [Example 7] | 32 | 102 | 32 | 69 | 35 | 68 | 167 | 51 | 48 | 59 |
| Cc1sc2c(c1C)C(c1ccc(Cl)cc1)=N[C@@H](CC(=O)N1CC3CCC1CC3)c1nnc(C)n1-2 [Example 8, (S)-1-(2-Azabicyclo[2,2,2]oct-2-yl)-2-[(6S)-4-(4-chlorophenyl)-2,3,9-trimethyl-6H-thieno[3,2-j][1,2,4]triazolo[4,3-a][1,4]diazepin-6-yl]ethanone] | 133 |  | 84 | 363 |  | 1060 |  |  | 297 |  |
| Cc1sc2c(c1C)C(c1ccc(Cl)cc1)=N[C@@H](CC(=O)N1C3CCC1CC3)c1nnc(C)n1-2 [Example 9, (S)-1-(7-Azabicyclo[2.2.1]hept-7-yl)-2-[(6S)-4-(4-chlorophenyl)-2,3,9-trimethyl-6H-thieno[3,2-f][1,2,4]triazolo[4,3-a][1,4]diazepin-6-yl]ethanone] | 88 |  | 75 | 291 |  | 838 |  |  | 414 |  |
